This note sets out measurements from US11230525B2, “Organic sulfur compound, method for preparing same, and pharmaceutical composition for preventing or treating cancer or an inflammatory disease, containing same as active ingredient” (SOOKMYUNG WOMENS UNIVERSITY INDUSTRY-ACADEMIC COOPERATION …, priority 2016, dated 2022).

Usually GI50 stands for the concentration giving 50% growth inhibition. By IC50 is commonly meant the midpoint of a concentration-inhibition curve.

Like-named read-outs stand apart in the source and are kept apart here.

Assay [1] relates to prostate cancer cell line (PC-3). Briefly: Cancer proliferation inhibitory activity (SRB, GI50), PC-3. Type of assay: cell-based. The note with it: Homo sapiens, 48 hours. The method, boiled down:
(§1)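 Human tumour cells in serum-supplemented RPMI 1640 received test compound (0.1 μM to 10 μM; untreated wells had 0.1% DMSO). Two days later they were TCA-fixed and SRB-stained, dye absorbance at 540 nm was recorded, and growth inhibition was expressed as GI50.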

The target in assay [2] is T1, HDAC 8 (Homo sapiens, UniProt Q9BY41).
T1 sequence (Q9BY41 1-377): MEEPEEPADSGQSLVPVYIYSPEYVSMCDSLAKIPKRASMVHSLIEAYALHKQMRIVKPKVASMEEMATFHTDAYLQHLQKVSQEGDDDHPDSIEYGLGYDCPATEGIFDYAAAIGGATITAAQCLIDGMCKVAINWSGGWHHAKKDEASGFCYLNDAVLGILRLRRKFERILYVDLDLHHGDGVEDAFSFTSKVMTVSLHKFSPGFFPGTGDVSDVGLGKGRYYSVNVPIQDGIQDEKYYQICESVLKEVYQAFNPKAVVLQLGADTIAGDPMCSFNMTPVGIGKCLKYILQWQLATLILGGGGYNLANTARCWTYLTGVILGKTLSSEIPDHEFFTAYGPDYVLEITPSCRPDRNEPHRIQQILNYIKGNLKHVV
The assay can be described thus: HDAC enzyme fluorescence assay, HDAC 8. Type of assay: biochemical. Details: Inhibitory activity (%) HDAC 8: concentration or dose not given beside the values. The note with it: for Inhibitory activity (%) HDAC 8: (HDAC inhibitory activity of example compound/HDAC inhibitory activity of SAHA) × 100. Put shortly:
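Recombinant HDAC8 preincubated 10 min with compound in 25 mM HEPES pH 8.0, 137 mM NaCl, 1 mM MgCl2, 2.7 mM KCl, then Boc-Lys(acetyl)-AMC added at 37° C (level and time set per isoform). Trypsin development 20 min at room temperature, fluorescence 380/460 nm; activity expressed as percent relative to SAHA reference.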

In assay [3] the test system is lung cancer cell line (NCl-H23). Briefly: Cancer proliferation inhibitory activity (SRB, GI50), NCI-H23. Format: cell-based. The note with it: Homo sapiens, 48 hours. The method, boiled down: as §1
The subject of assay [4] is breast cancer cell line (MDA-MB-231). Briefly: Cancer proliferation inhibitory activity (SRB, GI50), MDA-MB-231. Type of assay: cell-based. The note with it: Homo sapiens, 48 hours. The method, boiled down: as §1
Assay [5] concerns the target HDAC 1 (Homo sapiens, UniProt Q13547). Briefly: HDAC enzyme fluorescence assay, HDAC 1. The note with it: recombinant HDAC enzyme, Boc-Lys(acetyl)-AMC. Type of assay: biochemical. As to the method:
Particularly, HDAC enzyme analysis was performed based on a uniform fluorescence emission assay. First, the compounds of examples of the present invention or comparative example 1 were diluted at different concentrations, which were treated to the analysis buffer containing 25 mM HEPES (pH 8.0), 137 mM NaCl, 1 mM MgCl2 and 2.7 mM KCL, followed by culture of the recombinant HDAC enzyme. 10 minutes later, Boc-Lys(acetyl)-AMC, the fluorescence inducing substrate, was added thereto, followed by further culture at 37° C. At this time, the concentration of the fluorescence inducing substrate and the culture time were adjusted according to the isotypes of the HDAC enzyme. The reaction was terminated by treating trypsin at room temperature for 20 minutes. The fluorescence intensity was measured using a fluorescence analyzer at an excitation wavelength of 380 nm and an emission wavelength of 460 nm, respectively. The inhibition rate was calculated from the measured fluorescence intensity of each well with comparing to that of the control well. IC50 of the compound was calculated by analyzing the dose-reaction inhibition curve.

Assay [6] concerns PC-3 cells, human prostate cancer cells. Briefly: Anticancer activity in prostate cancer xenograft model. The note with it: for tumor size / cancer proliferation (FIGS. 2, 3): 50 mg/kg (SAHA 100 mg/kg) once a day for 16 days, compared with the non-treated group. Format: in vivo, mice. The procedure:
Particularly, 9×10^6 PC-3 cells, human prostate cancer cells, were inoculated subcutaneously to the right side of female BALB/c nu/nu mice at 5 weeks of age (Nara Biotech, Seoul, Republic of Korea).
When the tumor size reached 40-60 mm^3, the mice were randomly grouped (4 mice per group), which were the non-treated group (10% dimethylacetamide, 10% tween 80 and 80% distilled water), the groups treated with the compounds of comparative examples 1 and 2 (Ajoene, 50 mg/kg), the groups treated with the compounds of examples 18 and 32 (50 mg/kg), and the group treated with the positive control SAHA (Vorinostat, 100 mg/kg). The treatment was performed once a day for 16 days in total. During the treatment, the tumor size was measured with a vernier caliper, followed by evaluation according to the following formula: length (mm)×width (mm)×height (mm)/2. The weights were measured regularly.
Upon completion of the treatment (16 days later), the mice were sacrificed and the tumor weights were measured. All the experiments were performed according to the experiment protocol approved by Institutional Animal care and Use Committee (IACUC), Korea Research Institute of Bioscience and Biotechnology (KRIBB).

In assay [7] the test system is colorectal cancer cell line (HCT-15). Briefly: Cancer proliferation inhibitory activity (SRB, GI50), HCT-15. The note with it: Homo sapiens, 48 hours. Type of assay: cell-based. The method, boiled down: as §1

HDAC 1, sequence (Q13547 whole entry, species assumed): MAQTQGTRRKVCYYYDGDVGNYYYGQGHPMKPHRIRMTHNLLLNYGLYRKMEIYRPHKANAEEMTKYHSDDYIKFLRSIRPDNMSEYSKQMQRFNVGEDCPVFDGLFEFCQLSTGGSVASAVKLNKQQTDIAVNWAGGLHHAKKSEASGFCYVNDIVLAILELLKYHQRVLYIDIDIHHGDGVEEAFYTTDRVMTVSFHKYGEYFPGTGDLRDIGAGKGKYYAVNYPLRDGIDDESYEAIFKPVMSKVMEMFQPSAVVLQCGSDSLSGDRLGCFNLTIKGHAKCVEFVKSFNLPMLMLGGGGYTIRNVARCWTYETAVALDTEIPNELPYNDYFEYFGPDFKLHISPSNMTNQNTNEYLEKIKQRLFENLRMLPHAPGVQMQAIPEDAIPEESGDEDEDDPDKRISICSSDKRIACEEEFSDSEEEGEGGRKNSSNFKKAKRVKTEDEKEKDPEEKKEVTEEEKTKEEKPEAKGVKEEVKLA

As to `CCCSS/C=C\C[S+]([O-])c1cccc(OC)c1` (centres unmarked) [Example 18, (Z)-1-(3-(3-methoxyphenylsulfinyl)prop-1-enyl)-2-propyldisulfane], the GI50 in assay [1] turned out to be 1920 nM; in assay [3], 1590 nM; in assay [4], 2430 nM; in assay [7], 1340 nM. In addition, in assay [2], the “Inhibitory activity (%) HDAC 8” value amounted to 147.2%. For the same compound, the IC50 is 35 nM in assay [2] (read-out: IC50 against HDAC 8) and 3520 nM in assay [5]. Further, the “tumor size / cancer proliferation (FIGS. 2, 3)” value in assay [6] was “inhibit cancer proliferation similarly to the positive control SAHA”. Moreover, the “tumor weight (FIG. 4)” value in assay [6] (50 mg/kg once a day, tumor extracted after 16 days) is “lighter than the tumor weight in the non-treated group”.

On to `COc1ccc([S+]([O-])C/C=C\SSCc2ccccc2)cc1` (centres unmarked) [Example 32, (Z)-1-benzyl-2-(3-(4-methoxyphenylsulfinyl)prop-1-enyl)disulfane], for which the GI50 stood at 3190 nM in assay [1], 4370 nM in assay [3], 5880 nM in assay [4] and 1550 nM in assay [7]. Further, the “Inhibitory activity (%) HDAC 8” value in assay [2] turned out to be 150.4%. In addition, the IC50 in assay [2] (recombinant HDAC enzyme, Boc-Lys(acetyl)-AMC, read-out: IC50 HDAC 8) came out at 37 nM; in assay [5], 4550 nM. Further, the “tumor size / cancer proliferation (FIGS. 2, 3)” value in assay [6] was “cancer proliferation was inhibited”.
